Data from patent publication US20120177701A1, “COMPOSITIONS COMPRISING IMMUNOSTIMULATORY NUCLEIC ACIDS AND RELATED METHODS” (priority 2010, published 2012).

Legend:
human TLR8 = target: T1, human TLR8 (Homo sapiens, UniProt Q9NR97); assay: HEK-Blue hTLR8 NF-kB-inducible SEAP reporter assay (TLR8 activation); assay type: cell-based
T1 construct: host or cells: HEK293 (HEK-Blue hTLR8) with NF-kB-inducible SEAP reporter
T1 sequence (Q9NR97 27-1041): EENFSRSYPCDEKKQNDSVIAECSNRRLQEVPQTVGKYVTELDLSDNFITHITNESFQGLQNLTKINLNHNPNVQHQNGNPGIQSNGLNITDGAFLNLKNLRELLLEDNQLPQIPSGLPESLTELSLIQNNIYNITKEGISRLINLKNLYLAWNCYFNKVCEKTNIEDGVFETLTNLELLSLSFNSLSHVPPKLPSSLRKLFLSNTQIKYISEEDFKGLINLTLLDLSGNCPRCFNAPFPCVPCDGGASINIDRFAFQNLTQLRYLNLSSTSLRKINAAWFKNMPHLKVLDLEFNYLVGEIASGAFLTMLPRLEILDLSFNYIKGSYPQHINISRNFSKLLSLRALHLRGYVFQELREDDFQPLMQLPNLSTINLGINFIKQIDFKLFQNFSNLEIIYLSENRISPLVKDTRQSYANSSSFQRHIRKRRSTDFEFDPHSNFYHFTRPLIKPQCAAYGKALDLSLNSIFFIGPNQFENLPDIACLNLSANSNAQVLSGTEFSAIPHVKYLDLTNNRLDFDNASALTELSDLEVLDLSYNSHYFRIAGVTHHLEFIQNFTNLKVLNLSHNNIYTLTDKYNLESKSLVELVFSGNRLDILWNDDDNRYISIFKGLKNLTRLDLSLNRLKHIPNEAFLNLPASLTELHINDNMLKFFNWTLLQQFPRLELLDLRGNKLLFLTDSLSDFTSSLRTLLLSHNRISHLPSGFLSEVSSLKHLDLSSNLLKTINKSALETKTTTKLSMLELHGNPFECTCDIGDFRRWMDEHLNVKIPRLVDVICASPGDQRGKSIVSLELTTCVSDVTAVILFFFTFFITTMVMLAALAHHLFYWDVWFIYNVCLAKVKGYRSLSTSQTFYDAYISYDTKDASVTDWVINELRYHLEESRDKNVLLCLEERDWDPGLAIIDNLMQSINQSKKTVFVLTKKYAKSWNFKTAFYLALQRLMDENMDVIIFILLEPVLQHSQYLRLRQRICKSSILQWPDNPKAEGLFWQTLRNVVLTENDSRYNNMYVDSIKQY

J774 murine macrophages = assay: TNF-α induction in mouse macrophage cell line J774; assay type: cell-based
Protocol: Induction of TNF-α by macrophages is a hallmark of human TLR8 activation (Forsbach et al., 2008, J. Immunol., 180:3729-38; Ghosh et al., 2007, Int. Immunopharmacol., 7:1111-21; Gorden et al., 2005, J. Immunol., 174:1259-68). […] In the following experiment mouse macrophage cell line, J774, has been transfected by test ribonucleotides as described above for HEK-Blue™ hTLR8 cells (with the exception that 2-10×10^4 cells/well were used) and TNF-α was measured in culture supernatants at 16-20 hours after transfection.

Substance: 5′-GAGAUGUUAUUUUGUUUUUAAUAUUUC-3′ (phosphorothioate backbone, further chemistry not given here) [SL-0001, phosphorothioated 27-ribonucleotide from the 3′-terminus of Chikungunya virus strain TSI-GSD-218, bases 12010-12036]
- TLR8 activation (fold increase of SEAP induction over the background), described in words (human TLR8): stronger levels of TLR8 activation
- concentration at which TLR8 activation was detected starting (human TLR8): 40 nM
- TNF-α induction, described in words (J774 murine macrophages): strongly induced TNF-α expression, to the level seen when R-0006 was used
